Key:
[1] = target: T1, pEGFR, NCI-H1975 cells (L858R/T790M EGFR) (Homo sapiens, UniProt P00533, L858R/T790M); experiment: Cellular EGFR phosphorylation assay (LANCE Ultra TR-FRET) in NCI-H1975 cells; assay type: cell-based; conditions: 4 hours at 37° C., read-out: H1975 pEGFR IC50
T1 construct: pEGFR (Tyr1068) TR-FRET
Outline: (§1)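 pEGFR Tyr1068 TR-FRET readout, lysates after 4 h compound exposure (37 °C, 5% CO2); 9-dose 3-fold series. A431 only: EGF 40 ng/mL for last 10 min. IC50 from curve fit.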

HCC827 cells = experiment: 5-Day CellTiter Glo (CTG) cell proliferation assay, HCC827; assay type: cell-based; conditions: Homo sapiens; HCC827 cells (d746-750 EGFR), 5-day CTG proliferation, 120 hours; read-out: HCC827 IC50
Outline: (§2)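 Proliferation of EGFR-driven NSCLC cells was scored as CellTiter-Glo 2.0 luminescence after a 5-day (120 h) incubation with compounds in 9 doses. IC50 values came from the dose-response curves.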

[2] = target: T2, pEGFR, A431 cells (wildtype EGFR) (Homo sapiens, UniProt P00533); experiment: Cellular EGFR phosphorylation assay (LANCE Ultra TR-FRET) in A431 cells; assay type: cell-based; conditions: 4 hours at 37° C., 40 ng/mL EGF for the final 10 minutes, read-out: A431 pEGFR IC50
T2 construct: pEGFR (Tyr1068) TR-FRET
Outline: as §1

PC-9 cells = experiment: 5-Day CellTiter Glo (CTG) cell proliferation assay, PC-9; assay type: cell-based; conditions: Homo sapiens; PC-9 cells (d746-750 EGFR), 5-day CTG proliferation, 120 hours; read-out: PC-9 IC50
Outline: as §2

EGFR (D746-750) = EGFR (D746-750) (Homo sapiens, UniProt P00533, DEL746-750); experiment: HotSpot radiometric kinase assay, inhibition of EGFR 746-750 mutant; assay type: biochemical; conditions: 33P ATP, room temperature, 120 m
Outline: (§3)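 Radiometric filter-binding format: ATP plus 33P-ATP ([…]) was added about 20 min after compound to kinase and substrate in HEPES pH 7.5 buffer with Mg2+, EGTA, Brij35, BSA, vanadate, DTT and 1% DMSO. After 120 min at room temperature, reactions were spotted on P81 paper and washed in phosphoric acid; IC50 values fitted.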

[3] = tested on: BaF3 cells with engineered EGFR L858R/T790M/C797S; experiment: 3-Day CellTiter Glo (CTG) cell proliferation assay, BaF3 EGFR L858R/T790M/C797S; assay type: cell-based; conditions: Mus musculus, 3-day CTG proliferation, 72 hours
Outline: (§4)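 Luminescent ATP read-out (CellTiter-Glo 2.0) after 72 h compound exposure gives IC50 values. BaF3 transgenic cells, one thousand per well, received a nine-dose series and were kept at 37 °C under 5% CO2.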

[4] = target: T3, pEGFR, PC-9 cells (d746-750 EGFR) (Homo sapiens, UniProt P00533, DEL746-750); experiment: Cellular EGFR phosphorylation assay (LANCE Ultra TR-FRET) in PC-9 cells; assay type: cell-based; conditions: 4 hours at 37° C., read-out: PC-9 pEGFR IC50
T3 construct: pEGFR (Tyr1068) TR-FRET
Outline: as §1

EGFR (L858R/T790M/C797S) = EGFR (L858R/T790M/C797S) (Homo sapiens, UniProt P00533, C797S/L858R/T790M); experiment: HotSpot radiometric kinase assay, inhibition of EGFR L858R/T790M/C797S mutant; assay type: biochemical; conditions: 33P ATP, room temperature, 120 m
Outline: as §3

[5] = tested on: BaF3 cells with engineered EGFR d746-750/T790M; experiment: 3-Day CellTiter Glo (CTG) cell proliferation assay, BaF3 EGFR d746-750/T790M; assay type: cell-based; conditions: Mus musculus; BaF3 EGFR d746-750/T790M cells, 3-day CTG proliferation, 72 hours
Outline: as §4

EGFR (D770_N771insNPG) = EGFR (D770_N771insNPG) (Homo sapiens, UniProt P00533, INS770NPG); experiment: HotSpot radiometric kinase assay, inhibition of EGFR (D770_N771insNPG) mutant; assay type: biochemical; conditions: 33P ATP, room temperature, 120 m
Outline: as §3

[6] = tested on: BaF3 cells with engineered EGFR L858R/C797S; experiment: 3-Day CellTiter Glo (CTG) cell proliferation assay, BaF3 EGFR L858R/C797S; assay type: cell-based; conditions: Mus musculus, 3-day CTG proliferation, 72 hours
Outline: as §4

NCI-H1975 cells = experiment: 5-Day CellTiter Glo (CTG) cell proliferation assay, NCI-H1975; assay type: cell-based; conditions: Homo sapiens; NCI-H1975 cells (L858R/T790M EGFR), 5-day CTG proliferation, 120 hours; read-out: H1975 IC50
Outline: as §2

EGFR (D746-750/C797S) = EGFR (D746-750/C797S) (Homo sapiens, UniProt P00533, C797S/DEL746-750); experiment: HotSpot radiometric kinase assay, inhibition of EGFR 746-750/C797S mutant; assay type: biochemical; conditions: 33P ATP, room temperature, 120 m
Outline: as §3

Sequence of EGFR (D770_N771insNPG) (P00533 with tags, fused parts or gaps INS770NPG limits assumed): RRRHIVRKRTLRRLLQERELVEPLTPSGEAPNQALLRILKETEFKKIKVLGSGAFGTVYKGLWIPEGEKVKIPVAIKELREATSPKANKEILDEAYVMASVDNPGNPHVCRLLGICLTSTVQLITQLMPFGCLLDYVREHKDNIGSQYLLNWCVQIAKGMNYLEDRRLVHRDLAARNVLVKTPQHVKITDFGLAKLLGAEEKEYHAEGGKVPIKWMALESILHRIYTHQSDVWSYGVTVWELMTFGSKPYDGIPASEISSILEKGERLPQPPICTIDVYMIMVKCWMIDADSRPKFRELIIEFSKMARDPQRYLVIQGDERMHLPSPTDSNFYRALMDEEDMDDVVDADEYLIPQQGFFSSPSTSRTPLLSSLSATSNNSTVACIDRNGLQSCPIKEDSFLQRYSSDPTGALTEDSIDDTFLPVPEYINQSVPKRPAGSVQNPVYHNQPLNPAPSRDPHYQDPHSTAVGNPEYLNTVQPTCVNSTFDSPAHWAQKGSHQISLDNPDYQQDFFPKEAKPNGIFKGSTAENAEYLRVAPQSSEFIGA
T3 sequence (P00533 with tags, fused parts or gaps DEL746-750): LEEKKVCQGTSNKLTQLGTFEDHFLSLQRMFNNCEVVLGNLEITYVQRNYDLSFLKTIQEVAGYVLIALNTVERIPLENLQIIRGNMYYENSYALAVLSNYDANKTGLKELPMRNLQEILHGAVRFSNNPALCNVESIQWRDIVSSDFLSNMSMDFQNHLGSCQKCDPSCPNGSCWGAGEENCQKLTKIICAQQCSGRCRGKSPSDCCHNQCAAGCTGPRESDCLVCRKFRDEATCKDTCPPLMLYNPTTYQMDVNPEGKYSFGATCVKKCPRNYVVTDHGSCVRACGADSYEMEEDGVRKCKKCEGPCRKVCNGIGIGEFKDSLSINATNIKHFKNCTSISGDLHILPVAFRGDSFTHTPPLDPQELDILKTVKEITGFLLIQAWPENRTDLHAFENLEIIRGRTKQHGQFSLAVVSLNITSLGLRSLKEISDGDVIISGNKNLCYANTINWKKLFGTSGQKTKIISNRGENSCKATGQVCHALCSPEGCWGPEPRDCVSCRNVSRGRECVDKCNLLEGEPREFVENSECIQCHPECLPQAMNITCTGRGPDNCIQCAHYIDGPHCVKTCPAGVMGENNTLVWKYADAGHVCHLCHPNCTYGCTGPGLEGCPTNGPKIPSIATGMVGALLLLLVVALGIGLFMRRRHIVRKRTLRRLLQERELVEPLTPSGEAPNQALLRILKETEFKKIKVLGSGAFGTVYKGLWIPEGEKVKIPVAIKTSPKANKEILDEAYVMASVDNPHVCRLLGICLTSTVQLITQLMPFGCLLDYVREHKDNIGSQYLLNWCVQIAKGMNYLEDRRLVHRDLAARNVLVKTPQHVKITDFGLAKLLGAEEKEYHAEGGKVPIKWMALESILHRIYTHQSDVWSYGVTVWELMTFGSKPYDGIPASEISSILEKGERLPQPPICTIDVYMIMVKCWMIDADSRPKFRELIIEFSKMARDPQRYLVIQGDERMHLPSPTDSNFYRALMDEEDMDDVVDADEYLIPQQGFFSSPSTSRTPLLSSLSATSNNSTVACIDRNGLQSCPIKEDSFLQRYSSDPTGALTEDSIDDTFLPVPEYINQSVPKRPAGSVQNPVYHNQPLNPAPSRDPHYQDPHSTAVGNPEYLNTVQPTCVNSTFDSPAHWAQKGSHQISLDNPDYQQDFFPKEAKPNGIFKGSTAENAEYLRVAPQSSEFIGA
Sequence of EGFR (D746-750) (P00533 with tags, fused parts or gaps DEL746-750): as above
Sequence of EGFR (D746-750/C797S) (P00533 with tags, fused parts or gaps DEL746-750/C797S): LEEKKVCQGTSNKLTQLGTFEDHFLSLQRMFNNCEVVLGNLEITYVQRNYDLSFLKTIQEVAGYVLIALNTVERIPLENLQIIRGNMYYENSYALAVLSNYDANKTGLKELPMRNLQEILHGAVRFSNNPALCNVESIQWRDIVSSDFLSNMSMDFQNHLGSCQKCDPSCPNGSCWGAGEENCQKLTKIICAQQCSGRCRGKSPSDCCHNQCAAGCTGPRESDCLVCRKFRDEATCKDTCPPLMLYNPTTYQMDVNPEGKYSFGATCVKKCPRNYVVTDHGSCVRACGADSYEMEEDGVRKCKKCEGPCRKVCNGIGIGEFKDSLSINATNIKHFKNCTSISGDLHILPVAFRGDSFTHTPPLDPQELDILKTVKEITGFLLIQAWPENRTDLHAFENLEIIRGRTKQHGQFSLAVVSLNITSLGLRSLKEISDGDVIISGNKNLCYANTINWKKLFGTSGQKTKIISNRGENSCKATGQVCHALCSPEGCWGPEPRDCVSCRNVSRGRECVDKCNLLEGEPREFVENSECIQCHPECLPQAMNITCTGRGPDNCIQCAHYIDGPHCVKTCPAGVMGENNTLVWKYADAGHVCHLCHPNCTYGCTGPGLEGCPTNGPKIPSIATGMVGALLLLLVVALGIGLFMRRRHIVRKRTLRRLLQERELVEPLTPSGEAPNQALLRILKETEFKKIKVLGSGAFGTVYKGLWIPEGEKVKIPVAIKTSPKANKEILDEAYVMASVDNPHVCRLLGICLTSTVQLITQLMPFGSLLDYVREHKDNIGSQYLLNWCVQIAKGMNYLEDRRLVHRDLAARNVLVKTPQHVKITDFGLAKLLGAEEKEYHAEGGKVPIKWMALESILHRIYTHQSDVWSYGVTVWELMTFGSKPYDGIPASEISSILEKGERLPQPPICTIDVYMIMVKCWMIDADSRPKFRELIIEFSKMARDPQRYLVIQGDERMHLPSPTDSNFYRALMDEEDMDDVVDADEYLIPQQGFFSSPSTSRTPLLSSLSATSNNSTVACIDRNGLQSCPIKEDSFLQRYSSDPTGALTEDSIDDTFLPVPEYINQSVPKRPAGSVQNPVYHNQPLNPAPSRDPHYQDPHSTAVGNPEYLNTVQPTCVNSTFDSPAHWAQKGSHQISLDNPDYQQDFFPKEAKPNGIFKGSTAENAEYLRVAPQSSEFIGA

Compound	IC50 [1] [nM]	IC50 (HCC827 cells) [nM]	IC50 [2] [nM]	IC50 (PC-9 cells) [nM]	IC50 (EGFR (D746-750)) [nM]	IC50 [3] [nM]	IC50 [4] [nM]	IC50 (EGFR (L858R/T790M/C797S)) [nM]	IC50 [5] [nM]	IC50 (EGFR (D770_N771insNPG)) [nM]	IC50 [6] [nM]	IC50 (NCI-H1975 cells) [nM]	IC50 (EGFR (D746-750/C797S)) [nM]
CCOc1nn(CCO)c2c1/C=C/c1n[nH]c3cnc(cc13)-c1c(CC)nn(C)c1O[C@@H](C)CN(CC)C2 [Ex. 74, 2-[(10S,17E)-16-ethoxy-6,12-diethyl-8,10-dimethyl-2,8,10,11,12,13-hexahydro-14H-5,3-(azenometheno)tripyrazolo[3,4-f:3′,4′-j:4″,3″-n][1,4]oxazacyclopentadecin-14-yl]ethan-1-ol]	5.16	0.72	8.81	0.68	0.55	1.34	1.54	1.5	6.61	0.66	0.04	79.9	1.83
Cc1nn(C)c2c1-c1cc3c(n[nH]c3cn1)/C=C/c1c(OCC#N)nn(CCO)c1CN1CCC[C@@H]1C(C)O2 (single isomer, unassigned) [Ex. 50]	3.43	0.41	19.3	0.51	0.19	1.14	1.07	0.39	2.99	0.21	0.12	5.55	0.68
CCOc1nn(CCO)c2c1/C=C/c1n[nH]c3cnc(cc13)-c1c(C)nn(C)c1OC[C@H]1CCCN1C2 [Ex. 39]	2.18	0.63	22.7	6.57	0.32	1.87	2.11	0.5	6.08	0.48	0.27	26.4	0.85
CCOc1nn(CCO)c2c1/C=C/c1n[nH]c3cnc(cc13)-c1c(C)nn(C)c1O[C@H](C)[C@H]1CCCN1C2 [Ex. 33, 2-[(8aR,9R,19E)-1-ethoxy-9,11,13-trimethyl-7,8,8a,9,11,17-hexahydro-6H-14,16-(azenometheno)tripyrazolo[3,4-f:3′,4′-j:4″,3″-n]pyrrolo[2,1-c][1,4]oxazacyclopentadecin-3(4H)-yl]ethan-1-ol]	2.38	0.44	17.6	0.58	0.15	1.6	1.5	0.31	1.07	0.17	0.11	1.1	0.66
CCOc1nn(CCO)c2c1/C=C/c1n[nH]c3c(C)nc(cc13)-c1cnn(C)c1O[C@H](C)CN(C)C2 [Ex. 38, 2-[(10R,17E)-16-ethoxy-8,10,12,20-tetramethyl-2,8,10,11,12,13-hexahydro-14H-5,3-(azenometheno)tripyrazolo[3,4-f:3′,4′-j:4″,3″-n][1,4]oxazacyclopentadecin-14-yl]ethan-1-ol]	3.11	7.9	47.5	48.8	0.24	4.01	18.8	0.25	22.1	1.9	6.5	27.1	0.54
Cc1nc2cc3c(n[nH]c13)/C=C/c1c(OC(C)C)nn(CCO)c1CN(C)C[C@H](C)Oc1c-2cnn1C [Ex. 40, 2-[(10S,17E)-8,10,12,20-tetramethyl-16-[(propan-2-yl)oxy]-2,8,10,11,12,13-hexahydro-14H-5,3-(azenometheno)tripyrazolo[3,4-f:3′,4′-j:4″,3″-n][1,4]oxazacyclopentadecin-14-yl]ethan-1-ol]	1.6		14.7		0.35	0.92	11.4	0.45	3.34	1.63	0.28		0.97
CCN1Cc2c(c(OCC#N)nn2CCO)/C=C/c2n[nH]c3cnc(cc23)-c2c(C)nn(C)c2O[C@H](C)C1 [Ex. 36, {[(10R,17E)-12-ethyl-14-(2-hydroxyethyl)-6,8,10-trimethyl-2,10,11,12,13,14-hexahydro-8H-5,3-(azenometheno)tripyrazolo[3,4-f:3′,4′-j:4″,3″-n][1,4]oxazacyclopentadecin-16-yl]oxy}acetonitrile]					0.1	1.97		0.13	2.13	0.14	0.47		0.29
Cc1nn(CCO)c2c1/C=C/c1n[nH]c3cnc(cc13)-c1c(C)nn(C)c1O[C@@H](C)CN(C)C2 [Ex. 41, 2-[(10S,17E)-6,8,10,12,16-pentamethyl-2,8,10,11,12,13-hexahydro-14H-5,3-(azenometheno)tripyrazolo[3,4-f:3′,4′-j:4″,3″-n][1,4]oxazacyclopentadecin-14-yl]ethan-1-ol]					0.08	3.74		0.23	13.8	0.08	0.16		0.23
CCOc1nn([C@H](C)CO)c2c1/C=C/c1n[nH]c3cnc(cc13)-c1c(C)nn(C)c1O[C@H](C)CN(C)C2 [Ex. 89, (2R)-2-[(10R,17E)-16-ethoxy-6,8,10,12-tetramethyl-2,8,10,11,12,13-hexahydro-14H-5,3-(azenometheno)tripyrazolo[3,4-f:3′,4′-j:4″,3″-n][1,4]oxazacyclopentadecin-14-yl]propan-1-ol]	48.1	11	34.3	35.3		20.8	16.1		43.3		3.84	125	
CCOc1nn([C@@H](C)CO)c2c1/C=C/c1n[nH]c3cnc(cc13)-c1c(CC)nn(C)c1O[C@@H](C)CN(C)C2 [Ex. 82, (2S)-2-[(10S,17E)-16-ethoxy-6-ethyl-8,10,12-trimethyl-2,8,10,11,12,13-hexahydro-14H-5,3-(azenometheno)tripyrazolo[3,4-f:3′,4′-j:4″,3″-n][1,4]oxazacyclopentadecin-14-yl]propan-1-ol]	15	0.85	24.7	1.54		4.4	2.35		66.3		0.12	207	
CCOc1nn(CCO)c2c1/C=C/c1n[nH]c3cnc(cc13)-c1c(C)nn(C)c1OC[C@@H](C)N(C1CC1)C2 [Ex. 114, 2-[(11R,17E)-12-cyclopropyl-16-ethoxy-6,8,11-trimethyl-2,8,10,11,12,13-hexahydro-14H-5,3-(azenometheno)tripyrazolo[3,4-f:3′,4′-j:4″,3″-n][1,4]oxazacyclopentadecin-14-yl]ethan-1-ol]	5.67	1.66	22.2	4.87		1.84	3.56		3.72		0.42	27.1	
CCOc1nn([C@H](C)CO)c2c1/C=C/c1n[nH]c3c(C)nc(cc13)-c1c(C)nn(C)c1O[C@@H](C)CN(C)C2 [Ex. 95, (2R)-2-[(10S,17E)-16-ethoxy-6,8,10,12,20-pentamethyl-2,8,10,11,12,13-hexahydro-14H-5,3-(azenometheno)tripyrazolo[3,4-f:3′,4′-j:4″,3″-n][1,4]oxazacyclopentadecin-14-yl]propan-1-ol]	1.76	1.15	17.7	5.19		0.74	3.35		2.14		0.13	2.86	

— patent US20260317344A1, “EGFR INHIBITORS FOR TREATING DISEASE” (BLOSSOMHILL THERAPEUTICS, INC., priority 2023, published 2026)
